From patent US20170202838A1, “IMMUNOMODULATOR” (TAIHO PHARMACEUTICAL CO., LTD., priority 2015, published 2017) come the findings set out here.

In assay [1] the test system is MC38. As to the kind of experiment: In vitro growth of mouse colon cancer cell line MC38, CellTiter-Glo2.0 (Reference Example 1). It is filed as cell-based. The following applies: MC38, 3 days culture. How it is done: The mouse melanoma cell lines B16F10 and K1735M2 and the mouse colon cancer cell line MC38 were seeded in a 96-well plate at 3×10^3 cells/well. Compound (I) or the EGFR tyrosine kinase inhibitor (i.e., Erlotinib, Afatinib, AZD9291, or Co1686 (Rociletinib)) that had been diluted to the given concentration was added 24 hours later. Thereafter, culture was conducted for 3 days, and the number of cells was determined using CellTiter-Glo2.0 (Promega, G9243).

Another assay deals with B16F10. Put plainly: Pulmonary metastatic nodules after intravenous injection of mouse melanoma cell line, in vivo model (Example 8). The settings on record: oral 12.5 mg/kg or 50 mg/kg, 14 days after implantation, compared with control group (FIG. 10). How it is done:
A cell suspension of the mouse melanoma cell line B16F10 was prepared with the use of PBS(-), and the cell suspension was injected intravenously into the mouse caudal portion at 5×10^5 cells/mouse. Compound (I) was administered orally to the mouse model at 12.5 mg/kg or 50 mg/kg on the previous day of B16F10 implantation. The number of pulmonary metastatic nodules was evaluated 14 days after implantation (i.e., 15 days after drug administration). […] On the basis of the results above and the results of Reference Example 1 such that the tumor growth inhibitory effects were not observed in the in vitro model, it was deduced that the decreased number of pulmonary metastatic nodules was achieved by the immunomodulation activity of Compound (I).

For assay [2], the system named is C57BL/6N mouse spleen cells mixed with irradiated BALB/c mouse spleen cells. As to the kind of experiment: T cell modulation through mixed lymphocyte reaction, 3H-Thd uptake (Example 3). It is filed as cell-based. The settings on record: allogeneic mixed spleen cells, 3 days culture (FIG. 4). From the text: A mixed lymphocyte reaction (MLR) is a representative experimentation technique for T cell modulation described in, for example, J. Exp. Med. 127 (5): 879-90, 1968. The influence of Compound (I) imposed on T cell modulation through this reaction was examined.
Spleens were extracted from C57BL/6N mice and BALB/c mice, grinded with glass slides with frosted areas, and then subjected to hemolysis, so as to obtain spleen cells. The C57BL/6N mouse spleen cells and the BALB/c mouse spleen cells were introduced into a complete medium (i.e., RPMI-1640 supplemented with 10% heat-inactivated FBS, 100 U/ml penicillin, 100 μg/ml streptomycin, and 55 μM 2-mercaptoethanol). The BALB/c mouse spleen cells were irradiated with 30 Gy X-ray to destroy the growth activity. The spleen cells of these allogeneic mice were each added to the final concentration of 1×10^5 cells/well and mixed (Alo), and Compound (I) or the EGFR tyrosine kinase inhibitor (i.e., AZD09291 or Erlotinib) adjusted to relevant concentrations was added thereto. As a control sample, a mixture of syngeneic C57BL/6N mouse spleen cells (Syn) was also prepared. The culture solution was seeded in a 96-well plate at 200 μl/well and then cultured in an incubator at 37° C. in the presence of 5% CO2 for 3 days. […] The amount of 3H-Thd uptake was measured using a liquid scintillation counter.

Assay [3] deals with MC38. As to the kind of experiment: Tumor volume of subcutaneous mouse colon cancer cell line, alone or combined with anti-PD-1 antibody, in vivo model (Example 11). How it is done:
A cell suspension of the mouse colon cancer cell line MC38 was prepared with the use of PBS(-) and 50% Matrigel, and the cell suspension was injected subcutaneously into mice at 1×10^6 cells/mouse. The mice were divided into groups when the average subcutaneous tumor volume reached approximately 50 mm^3, Compound (I) (50 mg/kg) or the anti-PD-1 antibody (50 μg/mouse) was administered thereto alone or Compound (I) (50 mg/kg) was administered in combination with the anti-PD-1 antibody (50 μg/mouse), and the tumor volume was measured with the elapse of time. The tumor volume was determined on the basis of the longer diameter and the shorter diameter of the tumor measured percutaneously in accordance with Equation A shown below.
Tumor volume (mm^3)=longer diameter (mm)×shorter diameter (mm)^2/2 (Equation A)

The test system of assay [4] is human peripheral blood mononuclear cells. Put plainly: Induction of IL-2 production of PHA-M-stimulated human peripheral blood mononuclear cells (Example 2). The settings on record: PHA-M 5 μg/ml, 3 days, ELISA (FIG. 3). It is filed as cell-based. On the procedure: Human peripheral blood mononuclear cells were introduced into a human complete medium (i.e., RPMI-1640 supplemented with 10% heat-inactivated FBS, 100 U/ml penicillin, and 100 μg/ml streptomycin) to prepare a cell suspension (1×10^6 cells/ml). Phytohemagglutinin M (PHA-M) was added thereto to the final concentration of 5 μg/ml, and Compound (I) or an EGFR tyrosine kinase inhibitor (AZD9291) was further added thereto to each final concentration. This culture solution was seeded in a 96-well plate at 200 μl/well and then cultured in an incubator at 37° C. in the presence of 5% CO2 for 3 days. The culture supernatant was recovered, and the concentration of IL-2 therein was measured via ELISA using the anti-hIL-2 antibody.

The test system of a further assay is EG.7-OVA. As to the kind of experiment: Peripheral blood immunocyte analysis in mouse model subcutaneously implanted with OVA-expressing thymoma cell line (Example 5). It counts as in vivo. The settings on record: Compound (I) 50 mg/kg, 14 days after implantation, compared with control group and anti-PD-1 antibody group (FIG. 6). How it is done:
A cell suspension of the OVA-expressing mouse thymoma cell line (EG.7-OVA) was prepared with the use of PBS(-) and 50% Matrigel, and the cell suspension (1×10^4 cells/mouse) was implanted into the syngeneic C57BL/6n mice via subcutaneous injection. The mice were divided into groups based on their body weights 1 day after implantation, and Compound (I) was administered thereto at 50 mg/kg or the anti-PD-1 antibody was administered thereto at 100 μg/mouse. A control group to which neither Compound (I) nor the anti-PD-1 antibody had been administered was also prepared. The peripheral blood was sampled 14 days after implantation and analyzed via flow cytometry with the use of antibodies each reacting with a relevant immunocyte surface marker, so as to determine the relative number of CD4-positive cells, CD8-positive cells, and CD4-negative, CD8-negative, and NK1.1-positive cells. […] In the group to which Compound (I) had been administered, the number of all cells increased, compared with the control group and the group to which the anti-PD-1 antibody had been administered.

As for `C=CC(=O)N[C@H]1CCc2c(-c3cnc4ccccc4c3)c3c(N)ncnc3n2C1` [Compound (I), (S)—N-(4-amino-5-(quinolin-3-yl)-6,7,8,9-tetrahydropyrimido[5,4-b]indolizin-8-yl)acrylamide], in the assay on MC38 [1], the “suppression of cell growth (number of cells)” value is “did not suppress the growth of any cells”. The “number of pulmonary metastatic nodules” value in the assay on B16F10 is “decreased in a dose-dependent manner”. In addition, the “amount of 3H-Thd uptake (amount of T cells grown through the mixed lymphocyte reaction)” value in assay [2] was “induced the growth of T cells”. The “extent of tumor growth inhibition (tumor volume)” value with MC38 [3] (Compound (I) 50 mg/kg alone, compared with control group (FIG. 13)) was “greater”. Also, the “potentiation of the activity of the anti-PD-1 antibody (tumor volume)” value with MC38 [3] (Compound (I) 50 mg/kg in combination with anti-PD-1 antibody 50 μg/mouse (FIG. 13)) is on record as “potentiate the immunomodulation activity of the anti-PD-1 antibody”. Further, the “concentration of IL-2 produced by human peripheral blood mononuclear cells in the culture supernatant” value in assay [4] is recorded as “induced IL-2 production”. Besides, in the assay on EG.7-OVA, the “relative number of CD4-negative, CD8-negative, and NK1.1-positive cells in peripheral blood” value was “increased”; the “relative number of CD4-positive cells in peripheral blood” value is “increased”; the “relative number of CD8-positive cells in peripheral blood” value is “increased”.
